Format in all cases: in vivo, human
For assay [1], the system named is patients on chronic methadone therapy for pain. The experiment in a line: Piper survey for fatigue in chronic pain patients on methadone, with and without NAC. As to the method:
(§1) 6 patients who have been on chronic methadone therapy for pain treatment and who are also taking NAC (600 mg/day) were studied. Patients were taking a range of methadone doses (30-160 mg/day).
(§2) This is a descriptive case study of 6 patients. A blood sample was obtained and used to measure serum methadone levels was obtained on methadone/NAC therapy. NAC was supplied by the investigator from assayed commercially available supply and pill counts were done to assure patient compliance. The patients were on the same methadone dose for over seven days; this ensures steady state levels of methadone had been achieved. The patients were then be asked to stop taking NAC for 7 days and were asked to return to the clinic for a second blood draw that measured serum methadone levels. Blood was collected in the offices of BAA. Three additional patients were studied, after the results from sera of the initial patients were assayed; these patients had baseline pain and fatigue assessments with the Piper Survey and were subsequently treated with NAC, serum determinations were sent, but have not as yet been completed. Thus patients on methadone were studied with NAC withdrawal (First Group) and NAC added to treatment (second group). The medical chart was reviewed for current medications, including over the counter medications, supplements, and herbal preparations; health conditions and available laboratory evaluations of electrolytes. The patient's age and gender was recorded.
(§3) BAA offices: A 5 ml blood sample will be obtained on methadone/NAC. Blood was drawn prior to a normally timed dose of methadone. The patient was instructed to discontinue taking NAC and returned in 7 days, at the same time, for a blood draw. This was also drawn prior to a normally timed dose of methadone. Patients completed a Piper survey for fatigue and distress on each occasion prior to the blood draw. The Piper score reflects a valid measure of fatigue. Higher numbers for the score are indicative of greater fatigue. Within the Piper survey a pain measure is also recorded. Both pain and fatigue scores were measured at each of the clinical visits one week apart. Trained study personnel completed chart review. Analysis of serum concentrations of methadone was completed at the Bioanalytical Core Lab at the Arizona Health Science Center (Sarver Heart Center, University of Arizona, Tucson).

Assay [2] shares this test system. The experiment in a line: VAS pain and clinical comments in pain patients in clinical trial, with and without NAC. As to the method: as §1, §2, §3
For assay [3], the system named is Restless Legs Syndrome (RLS) subjects. Kind of assay: Clinical use: relief of Restless Legs Syndrome symptoms. Particulars: clinical observation. As to the method: The blood levels of these patients measured below detection thresholds (20 ng/ml) and well below the blood levels recorded for pain relief (300 ng/ml). The NAC dose used in the present invention was far less than the 500 mg TID dose used as a supplement in treatment of diseases of inflammation.

Assay [4] concerns patients with pain / restless legs syndrome. The experiment in a line: Case histories: NAC added to oral ketamine (pain diary, patient reports). Particulars: single patients; Case 1: NAC 25 mg, within 24 hours; Case 2: ketamine 150 mg/day.
Protocol: The patient maintained a diary noting their level of pain with 1 being the lowest and 10 the highest. […] The patient was then administered 25 mg of NAC to be taken in combination with oral ketamine.
Where [5] appears, read: on methadone without NAC (M001-M003 NAC stopped 7 days; M004-M006 baseline before NAC).
[6] abbreviates: cases summarized and a few additional cases.

Entries after “also recorded” stand apart in the source; their conditions may differ.

On to `CCC(=O)C(CC(C)N(C)C)(c1ccccc1)c1ccccc1` (stereo not shown) [Mtd, methadone], for which the “Fatigue (yes/no)” value in assay [1] (setting [5]) is given as “Yes”.

`CC(=O)N[C@@H](CS)C(=O)O` [NAC, N-acetyl-cysteine]: the “fatigue when NAC is added to methadone” value in assay [1] (setting [6]) is on record as “Improvement in fatigue”. Further, the “Fatigue (yes/no)” value in assay [1] (on methadone with NAC, patients M001-M006) is “No”; in assay [1] (setting [5]) it was “Yes and No”. Further, the “medication for pain when NAC is added to methadone” value in assay [2] (setting [6]) was “reduction in medication for pain”. Also, in assay [2] (patient M004, after NAC added to methadone), the opioid reduction result is on record as “subsequently; 30% opiod”. Besides, the “Comments: change on stopping NAC” value in assay [2] (patients M001-M003 on methadone, NAC stopped 7 days) was “Inc. irritabil; also recorded: Inc.pain/w”. Also, in assay [2] (patients M004-M006 on methadone, NAC added), the “Comments: patient report / clinical course after NAC added” value is listed as “Stopped all oxycondone; also recorded: “much less fatigue since starting; also recorded: “I do feel better taking NAC””.

Regarding `COc1ccc2c(c1)[C@]13CCCC[C@@H]1[C@H](C2)N(C)CC3` [dextromethorphan], in assay [3], the “symptoms of Restless Legs Syndrome (RLS)” value is “treats restless legs syndrome”.

Turning to `CNC1(c2ccccc2Cl)CCCCC1=O` (stereo not shown) [ketamine], the “pain relief (patient report)” value in assay [4] is “noted pain relief”.

The record behind these values is patent US20080096872A1, “Composition for Treatment of Pain Specification” (priority 2004, published 2008).
